# Tested on: LuxArray 1.04 E. coli strains (luxCDABE gene fusions)
# Assay: LuxArray 1.04 limonene stress of the reporter array in liquid culture
# Assay type: cell-based
# Settings: 80% saturated limonene in LB
# Protocol: Microplates from −80° C. containing the LuxArray 1.04 E. coli strains were thawed and used to inoculate 100 μl LB medium supplemented with 100 μg/ml ampicillin in Costar#3595 flat bottomed 96-well microplates. Following overnight growth at 37° C., the plates were visually examined and any wells with little or no turbidity were recorded. Then these cultures were diluted by transfer of 15 μl to 135 μl LB medium in Costar #3595, flat bottom 96-well microplates and were moderately swirl shaken on an IKA Schuttler MTS 4 shaker at setting 400 for two hrs at 37° C. in a humidified box. Twenty μl of each these actively growing cultures were transferred to the corresponding well in sets of three microplates, one containing 80 μl of LB medium, another containing 80 μl of LB medium saturated with limonene at room temperature, and the third containing 40 μl of LB medium saturated with limonene and 40 μl of LB medium. An initial (zero time) reading was taken using an MLX microplate luminometer (Dynex) pre-warmed to 37° C. Then the plates were placed at 37° C. without shaking. Additional bioluminescent measurements were taken at 45, 90, and 135 minutes. To limit the number of microplates handled each day, LuxArray 1.04 microplates 1 to 5, microplates 6 to 10, microplates 11 to 15, and microplates […] were used on each of four different days.
# The data were normalized to correct for growth-inhibition caused by limonene on the basis of each individual day that data was collected. The bioluminescence (RLU) of each individual culture for each day of experimentation under each of the three conditions, were added to determine the daily array total RLU. These were used to find a daily normalization factor (DNF) as follows:
# DNF=Daily total array signal(time zero, LB control)/Daily total array signal(time x, condition y)
# Each measurement from the corresponding day, time point, and condition was multiplied by DNF to yield a normalized signal. The data from wells that were scored to have little or no growth were not used in further analysis. The normalized data were analyzed with GeneSpring (Silicon Genetics) software, which averaged the signal from each of the duplicate cultures for each reporter gene fusion.
# Thus, patterns of gene expression from the 80% saturated limonene in LB medium were further examined. […] These lists were examined and gene fusions with very low normalized RLU values (<0.012 RLU) at all conditions were eliminated. […] The designation of “>2X” is given for upregulation while “*” is listed if the expression was less than 2 fold increased. At 45 minutes, the expression of fourteen gene fusions was increased; none of these was increased 3 fold or higher. At 90 minutes, 37 gene fusions were induced; these included all but one of the gene fusions observed at 45 minutes. […] These were fusions of the luxCDABE reporter to the promoter regions of uhpT (3.8×), nirB (3.7×) and narK (3.6×). At 135 minutes, 39 gene fusions were induced, which included 13 fusions not observed at 45 or 90 minutes.
smiles,measurement,setting,value
C=C(C)[C@H]1CC=C(C)CC1 [limonene],upregulation of gene fusion,"b2451 fusion, 135 minutes",>2X (The designation of “>2X” is given for upregulation)
same,upregulation of gene fusion,"b2550 fusion, 45 minutes",* (“*” is listed if the expression was less than 2 fold increased)
same,upregulation of gene fusion,"b2550 fusion, 90 minutes",>2X (The designation of “>2X” is given for upregulation)
same,upregulation of gene fusion,"b2550 fusion, 135 minutes",* (“*” is listed if the expression was less than 2 fold increased)
same,upregulation of gene fusion,"b2699 (recA) fusion, 45 minutes",* (“*” is listed if the expression was less than 2 fold increased)
same,upregulation of gene fusion,"b2699 (recA) fusion, 90 minutes",>2X (The designation of “>2X” is given for upregulation)
same,upregulation of gene fusion,"b2699 (recA) fusion, 135 minutes",>2X (The designation of “>2X” is given for upregulation)
same,upregulation of gene fusion,"b2999 fusion, 45 minutes",>2X (The designation of “>2X” is given for upregulation)
same,upregulation of gene fusion,"b2999 fusion, 90 minutes",* (“*” is listed if the expression was less than 2 fold increased)
same,upregulation of gene fusion,"b2999 fusion, 135 minutes",* (“*” is listed if the expression was less than 2 fold increased)
same,upregulation of gene fusion,"b3012 fusion, 45 minutes",>2X (The designation of “>2X” is given for upregulation)
same,upregulation of gene fusion,"b3012 fusion, 90 minutes",>2X (The designation of “>2X” is given for upregulation)
same,upregulation of gene fusion,"b3012 fusion, 135 minutes",>2X (The designation of “>2X” is given for upregulation)
same,upregulation of gene fusion,"b3245 fusion, 45 minutes",* (“*” is listed if the expression was less than 2 fold increased)
same,upregulation of gene fusion,"b3245 fusion, 90 minutes",>2X (The designation of “>2X” is given for upregulation)
same,upregulation of gene fusion,"b3245 fusion, 135 minutes",>2X (The designation of “>2X” is given for upregulation)
same,upregulation of gene fusion,"b3267 (yhdV) fusion, 45 minutes",* (“*” is listed if the expression was less than 2 fold increased)
same,upregulation of gene fusion,"b3267 (yhdV) fusion, 90 minutes",>2X (The designation of “>2X” is given for upregulation)
same,upregulation of gene fusion,"b3267 (yhdV) fusion, 135 minutes",>2X (The designation of “>2X” is given for upregulation)
same,upregulation of gene fusion,"b3336 (bfr) fusion, 45 minutes",* (“*” is listed if the expression was less than 2 fold increased)
same,upregulation of gene fusion,"b3336 (bfr) fusion, 90 minutes",>2X (The designation of “>2X” is given for upregulation)
same,upregulation of gene fusion,"b3336 (bfr) fusion, 135 minutes",* (“*” is listed if the expression was less than 2 fold increased)
same,upregulation of gene fusion,"b3365 (nirB) fusion, 45 minutes",* (“*” is listed if the expression was less than 2 fold increased)
same,upregulation of gene fusion,"b3365 (nirB) fusion, 90 minutes",>2X (The designation of “>2X” is given for upregulation)
same,upregulation of gene fusion,"b3365 (nirB) fusion, 135 minutes",>2X (The designation of “>2X” is given for upregulation)
same,upregulation of gene fusion,"b3419 (yhgJ) fusion, 45 minutes",* (“*” is listed if the expression was less than 2 fold increased)
same,upregulation of gene fusion,"b3419 (yhgJ) fusion, 90 minutes",>2X (The designation of “>2X” is given for upregulation)
same,upregulation of gene fusion,"b3419 (yhgJ) fusion, 135 minutes",>2X (The designation of “>2X” is given for upregulation)
same,upregulation of gene fusion,"b3666 (uhpT) fusion, 45 minutes",* (“*” is listed if the expression was less than 2 fold increased)
same,upregulation of gene fusion,"b3666 (uhpT) fusion, 90 minutes",>2X (The designation of “>2X” is given for upregulation)
same,upregulation of gene fusion,"b3666 (uhpT) fusion, 135 minutes",>2X (The designation of “>2X” is given for upregulation)
same,upregulation of gene fusion,"b3904 (rhaB) fusion, 45 minutes",>2X (The designation of “>2X” is given for upregulation)
same,upregulation of gene fusion,"b3904 (rhaB) fusion, 90 minutes",>2X (The designation of “>2X” is given for upregulation)
same,upregulation of gene fusion,"b3904 (rhaB) fusion, 135 minutes",>2X (The designation of “>2X” is given for upregulation)
same,upregulation of gene fusion,"b3942 (katG) fusion, 45 minutes",* (“*” is listed if the expression was less than 2 fold increased)
same,upregulation of gene fusion,"b3942 (katG) fusion, 90 minutes",>2X (The designation of “>2X” is given for upregulation)
same,upregulation of gene fusion,"b3942 (katG) fusion, 135 minutes",>2X (The designation of “>2X” is given for upregulation)
same,upregulation of gene fusion,"b4043 (lexA) fusion, 45 minutes",* (“*” is listed if the expression was less than 2 fold increased)
same,upregulation of gene fusion,"b4043 (lexA) fusion, 90 minutes",>2X (The designation of “>2X” is given for upregulation)
same,upregulation of gene fusion,"b4043 (lexA) fusion, 135 minutes",* (“*” is listed if the expression was less than 2 fold increased)
same,upregulation of gene fusion,"b4106 (phnC) fusion, 45 minutes",>2X (The designation of “>2X” is given for upregulation)
same,upregulation of gene fusion,"b4106 (phnC) fusion, 90 minutes",>2X (The designation of “>2X” is given for upregulation)
same,upregulation of gene fusion,"b4106 (phnC) fusion, 135 minutes",>2X (The designation of “>2X” is given for upregulation)
same,upregulation of gene fusion,"b4264 (yjgS) fusion, 45 minutes",* (“*” is listed if the expression was less than 2 fold increased)
same,upregulation of gene fusion,"b4264 (yjgS) fusion, 90 minutes",>2X (The designation of “>2X” is given for upregulation)
same,upregulation of gene fusion,"b4264 (yjgS) fusion, 135 minutes",* (“*” is listed if the expression was less than 2 fold increased)
same,upregulation of gene fusion,"b4392 (slt) fusion, 45 minutes",>2X (The designation of “>2X” is given for upregulation)
same,upregulation of gene fusion,"b4392 (slt) fusion, 90 minutes",>2X (The designation of “>2X” is given for upregulation)
same,upregulation of gene fusion,"b4392 (slt) fusion, 135 minutes",* (“*” is listed if the expression was less than 2 fold increased)
same,upregulation of gene fusion (fold),"katG promoter fusion, 135 minutes",4.1 ×
same,upregulation of gene fusion (fold),"narK promoter fusion, 90 minutes",3.6 ×
same,upregulation of gene fusion (fold),"nirB promoter fusion, 90 minutes",3.7 ×
same,upregulation of gene fusion (fold),"nirB promoter fusion, 135 minutes",4.1 ×
same,upregulation of gene fusion (fold),"uhpT promoter fusion, 90 minutes",3.8 ×
same,upregulation of gene fusion (fold),"uhpT promoter fusion, 135 minutes",7.7 ×
